± gives the standard deviation of the averaged measurements.
How the values were obtained:
[1] = compound: CN(C)CC[C@H](CSc1ccccc1)Nc1ccc(S(=O)(=O)NC(=O)c2ccc(N3CCN(Cc4ccccc4-c4ccc(Cl)cc4)CC3)cc2)cc1[N+](=O)[O-] [ABT-737]; test: surviving fraction relative to DMSO-only wells; higher = less growth inhibition; settings: exposure time: 5 days
In short: (§1)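 Lines were retained only if, across three screens, replicate Pearson r was >0.7 and median Z' was >0.3. Viability was measured as CellTiter-Glo luminescence and reported as surviving fraction relative to the median of DMSO-only wells. Readings followed 10 minutes at room temperature, after log-phase tumour cells seeded at 250–500 per well in 384-well plates had been exposed, from 24 hours after seeding, continuously for five days to inhibitors at 0.5, 1, 5, 10, 50, 100, 500 and 1000 nM.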

[2] = compound: O=c1[nH]cc(F)c(=O)[nH]1 [FLUOROURACIL]; test: as above; settings: exposure time: 5 days
In short: as §1

Test System	surviving fraction ([1]; 0.5 nM)	surviving fraction ([1]; 1 nM)	surviving fraction ([1]; 5 nM)	surviving fraction ([1]; 10 nM)	surviving fraction ([1]; 50 nM)	surviving fraction ([1]; 100 nM)	surviving fraction ([1]; 500 nM)	surviving fraction ([1]; 1000 nM)	surviving fraction ([2]; 0.5 nM)	surviving fraction ([2]; 1 nM)	surviving fraction ([2]; 5 nM)	surviving fraction ([2]; 10 nM)	surviving fraction ([2]; 50 nM)	surviving fraction ([2]; 100 nM)	surviving fraction ([2]; 500 nM)	surviving fraction ([2]; 1000 nM)
SCC90 HEADNECK	1.05 ± 0.077	1.05 ± 0.11	1.14 ± 0.12	1.14 ± 0.073	1.09 ± 0.046	1.11 ± 0.097	0.949 ± 0.05	0.853 ± 0.087	0.968 ± 0.033	0.982 ± 0.096	1 ± 0.039	1.012 ± 0.009	0.928 ± 0.087	0.86 ± 0.1	0.908 ± 0.064	0.95 ± 0.08
SG27 HEADNECK	1.26 ± 0.26	1.12 ± 0.12	1.19 ± 0.029	1.16 ± 0.079	1.15 ± 0.11	1.08 ± 0.13	0.88 ± 0.11	0.797 ± 0.059	1.07 ± 0.029	1.08 ± 0.13	0.991 ± 0.016	1.08 ± 0.053	1.08 ± 0.087	1 ± 0.13	1.137 ± 0.0093	1.01 ± 0.043
SG28 HEADNECK	1.25 ± 0.068	1.17 ± 0.064	1.02 ± 0.07	1.081 ± 0.0014	1.036 ± 0.0064	1.09 ± 0.021	1.13 ± 0.14	1.04 ± 0.016	1.04 ± 0.056	1.08 ± 0.056	0.944 ± 0.078	1.06 ± 0.036	0.756 ± 0.013	0.756 ± 0.12	0.781 ± 0.059	0.693 ± 0.068
SG31 HEADNECK	1.2 ± 0.19	1.51 ± 0.051	1.08 ± 0.21	1.04 ± 0.025	1.03 ± 0.18	1.2 ± 0.27	1.27 ± 0.25	1.12 ± 0.11	1.09 ± 0.14	1.25 ± 0.32	1.05 ± 0.085	0.973 ± 0.11	0.893 ± 0.048	0.981 ± 0.16	0.903 ± 0.059	0.876 ± 0.054
SG32 HEADNECK	1.02 ± 0.13	0.981 ± 0.024	1.04 ± 0.11	1.17 ± 0.15	0.963 ± 0.025	1.23 ± 0.51	1.07 ± 0.0099	0.954 ± 0.045	1.28 ± 0.12	0.974 ± 0.046	1.21 ± 0.34	0.932 ± 0.029	0.864 ± 0.056	0.716 ± 0.098	0.8 ± 0.095	0.442 ± 0.096
SG43 HEADNECK	0.947 ± 0.12	1.06 ± 0.25	0.889 ± 0.076	0.875 ± 0.057	0.769 ± 0.14	0.801 ± 0.069	0.656 ± 0.24	0.752 ± 0.34	1.07 ± 0.14	0.991 ± 0.21	0.979 ± 0.25	1.06 ± 0.3	1.1 ± 0.22	0.905 ± 0.073	0.977 ± 0.088	0.879 ± 0.054
SIHA CERVIX	1.02 ± 0.017	1.1 ± 0.052	1.12 ± 0.033	1.08 ± 0.14	1.14 ± 0.056	1.2 ± 0.087	1.19 ± 0.056	1.14 ± 0.043	1.01 ± 0.043	0.989 ± 0.052	1.06 ± 0.011	1.08 ± 0.066	0.999 ± 0.051	0.957 ± 0.073	0.915 ± 0.13	1.02 ± 0.097
SJSA1 BONE	1.59 ± 0.063	1.68 ± 0.045	1.63 ± 0.06	1.72 ± 0.049	1.66 ± 0.078	1.81 ± 0.12	1.74 ± 0.045	1.81 ± 0.14	1.19 ± 0.1	1.6 ± 0.092	1.59 ± 0.11	1.52 ± 0.2	0.135 ± 0.008	0.823 ± 0.018	1.44 ± 0.026	0.116 ± 0.001
SKBR3 BREAST	1.04 ± 0.035	1.03 ± 0.07	0.988 ± 0.13	1.19 ± 0.13	0.976 ± 0.071	1.15 ± 0.09	1.01 ± 0.14	1.13 ± 0.13	0.988 ± 0.088	0.894 ± 0.085	1.03 ± 0.074	0.986 ± 0.015	0.792 ± 0.059	0.741 ± 0.11	0.901 ± 0.11	0.787 ± 0.018
SNU475 LIVER	1.07 ± 0.017	1 ± 0.018	1.08 ± 0.083	1.05 ± 0.064	1.02 ± 0.039	1 ± 0.12	1.01 ± 0.061	0.972 ± 0.047	1 ± 0.058	0.982 ± 0.018	0.99 ± 0.046	0.9607 ± 0.0047	0.886 ± 0.021	0.892 ± 0.025	0.826 ± 0.081	0.741 ± 0.066
